Assay results reported in patent USRE37886E1, “1-(1,2-Disubstituted piperidinyl)-4-substituted piperazine derivatives” (Janssen Pharmaceuticals, N.V., priority 1995, dated 2002).

How the values were obtained:
[1] = tested on: substance-P induced relaxation of the pig coronary arteries; test: Antagonism of substance-P induced relaxation of the pig coronary arteries; assay type: cell-based; conditions: concentration at which 50% of the response to 10^−9 M substance P was inhibited, 30 minutes incubation, prostaglandin F2a precontracted segments
Source text: (§1) The compounds of the present invention are potent inhibitors of neurokinin-mediated effects, in particular those mediated via the NK1 receptor, and may therefore be described as tachykinin antagonists, especially as substance P antagonists, as indicated in vitro by the antagonism of substance P induced relaxation of pig coronary arteries which is described hereinafter. The binding affinity of the present compounds for the human, guinea-pig and gerbil neurokinin receptors may be determined in vitro in a receptor binding test using ^3H-substance-P as radioligand. The subject compounds also show substance-P antagonistic activity in vivo as may be evidenced by, for instance, the antagonism of substance P-induced plasma extravasation in guinea-pigs, or the antagonism of drug-induced emesis in ferrets (Watson et al., Br. J. Pharmacol. 115, 84-94, 1995).
Antagonism of substance-P induced relaxation of the pig coronary arteries
Segments of coronary artieries taken from pigs (killed by injection of an overdose of sodium pentobarbital) were inverted and mounted for recordign of isometric tension in organ baths (volume 20 ml) with the endothelium at the outside. The preparations were bathed in Krebs-Henseleit solution. The solution was kept at 37° C. and gassed with a mixture of O2/CO2 (95/5). After stabilisation of the preparations, prostaglandin F2a (10^−5 M) was administered to induce a contraction. This was repeated until contractivle responses became stable. Then prostaglandin F2a was again administered and substance P(3×10^−10 M and 10^−9 M cumulatively) was added. Substance P induced endothelium dependent relaxations. After washing away the agonists, a known concentratin of a compound of formula (I) was added. After an incubation period of 30 minutes, prostaglandin F2a ([…]) and the same concentrations of sbustance P as described above were again administered in the presence of the compound to be tested. Relaxations caused by substance P were expressed as relaxations under control conditions, and percent inhibition of the response to […] substance P was taken as a measure of the antagonistic activity of the compound to be tested. Table 6 lists the IC50 values (concentration at which 50% of the response to […] substance P was inhibited by the test compound) for the tested compounds.

[2] = tested on: substance P induced plasma extravasation; test: Antagonism of substance P induced plasma extravasation in guinea-pigs; assay type: in vivo; conditions: lowest active dose, female guinea-pigs; for LAD nose: compound 1 hour prior to substance P (2 mg/kg, femoral artery), blue colouring of nose 10 minutes after challenge; for LAD conjunctiva / LAD forepaws / LAD trachea / LAD urinary bladder: compound 1 hour prior to substance P; for LAD conjunctiva: blue colouring of conjunctiva 10 minutes after challenge; for LAD forepaws: blue colouring of forepaws 10 minutes after challenge; for LAD trachea: blue colouring of trachea 30 minutes after challenge; for LAD urinary bladder: blue colouring of urinary bladder 30 minutes after challenge
Source text: as §1
Antagonism of substance P induced plasma extravasation in guinea-pigs
Plasma extravasation was induced by injection of substance P (2 mg/kg) in the femoral artery of female guinea-pigs. Evans Blue dye (30 mg/kg) was injected simultaneously. The test compound or solvent was administered 1 hour prior to substance P injection. 10 minutes after challenge, the aminals were checked for blue colouring (a direct measure for plasma extravasation) of the nose, the forepaws, and the conjectiva. 30 minutes after challenge, the animals were sacrificed by CO2 gas inhalation and checked for blue colouring of the trachea and the urinary bladder. […]

IC50 ([1]; Sus scrofa, 0.5 h) [nM]	Structure (SMILES)	IC50 [1] [nM]	LAD nose [2] [mg/kg]	LAD conjunctiva [2] [mg/kg]	LAD forepaws [2] [mg/kg]	LAD trachea [2] [mg/kg]	LAD urinary bladder [2] [mg/kg]
	O=C(C(c1ccccc1)N1CCN(C2CCN(C(=O)c3cc(C(F)(F)F)cc(C(F)(F)F)c3)C(Cc3ccccc3)C2)CC1)N1CCCC1 (mixture of isomers) [Compound 46]	0.42	0.63	0.63	0.63	>40	0.63
	O=C(C(c1ccccc1)N1CCN(C2CCN(C(=O)c3cc(C(F)(F)F)cc(C(F)(F)F)c3)C(Cc3ccccc3)C2)CC1)N1CCCC1 (mixture of isomers) [Compound 52]	1.1	0.63	2.50	0.63	10.0	10.0
	CCOCCn1c(CN2CCN(C3CCN(C(=O)c4cc(C(F)(F)F)cc(C(F)(F)F)c4)C(Cc4ccccc4)C3)CC2)nc2cccnc21 (racemic) [Compound 25]	0.79	2.50	10.0	2.50	>40	>40
	O=C(CN1CCN(C2CCN(C(=O)c3cc(C(F)(F)F)cc(C(F)(F)F)c3)C(Cc3ccccc3)C2)CC1)Nc1c(Cl)cccc1Cl (racemic) [Compound 45]	0.15	0.63	0.63	0.63	>40	2.50
	COc1ccccc1N1CCN(C2CCN(C(=O)c3cc(C(F)(F)F)cc(C(F)(F)F)c3)C(Cc3ccccc3)C2)CC1 (racemic) [Compound 56]	3.25	10.0	10.0	10.0	40.0	2.50
	Cc1cccc(C)c1NC(=O)CN1CCN(C2CCN(C(=O)c3cc(C(F)(F)F)cc(C(F)(F)F)c3)C(Cc3ccccc3)C2)CC1 (racemic) [Compound 59]	1.2	2.50	2.50	2.50	5.00	5.00
	O=C(O)C=CC(=O)O.O=C(O)C=CC(=O)O.O=C(c1cc(C(F)(F)F)cc(C(F)(F)F)c1)N1CCC(N2CCCN(Cc3ccccc3)CC2)CC1Cc1ccccc1 (racemic) [Compound 68]	5.88	10.0	40.0	10.0	>40	>40
0.29	Cc1ncc(Cn2c(N3CCN([C@H]4CCN(C(=O)c5cc(C(F)(F)F)cc(C(F)(F)F)c5)[C@@H](Cc5ccccc5)C4)CC3)nc3ccccc32)o1 (racemic) [Compound 70, (±)-cis-1-[3,5-bis(trifluoromethyl)benzoyl]-4-[4-[1-[(2-methyl-5-oxazolyl)methyl]-1H-benzimidazol-2-yl]-1-piperazinyl]-2-(phenylmethyl)piperidine]		10.0	10.0	10.0	10.0	10.0
	Cc1ncc(Cn2c(N3CCN(C4CCN(C(=O)c5cc(C(F)(F)F)cc(C(F)(F)F)c5)C(Cc5ccccc5)C4)CC3)nc3ccccc32)o1 (racemic) [Compound 85]	0.15	2.50	2.50	2.50	2.50	10.0
	Cc1cc(C)cc(COC(CN2CCN(C3CCN(C(=O)c4cc(C(F)(F)F)cc(C(F)(F)F)c4)C(Cc4ccccc4)C3)CC2)c2ccccc2)c1 (racemic) [Compound 87]	1.9	10.0	10.0	10.0	10.0	>40
	Cc1cccc(C)c1NC(=O)C(c1ccccc1)N1CCN(C2CCN(C(=O)c3cc(C(F)(F)F)cc(C(F)(F)F)c3)C(Cc3ccccc3)C2)CC1 (racemic) [Compound 94]	0.42	2.50	2.50	2.50	10.0	10.0
	O=C(CN1CCN(C2CCN(C(=O)c3cc(C(F)(F)F)cc(C(F)(F)F)c3)C(Cc3ccccc3)C2)CC1)N1CCCc2ccccc21 (racemic) [Compound 101]	0.75	10.0	10.0	10.0	>40	>40
	Cc1cccc(C)c1NC(=O)CCN1CCN(C2CCN(C(=O)c3cc(C(F)(F)F)cc(C(F)(F)F)c3)C(Cc3ccccc3)C2)CC1 (racemic) [Compound 105]	1.05	2.50	2.50	2.50	>40	>40
	O=C(CN1CCN(C2CCN(C(=O)c3cc(C(F)(F)F)cc(C(F)(F)F)c3)C(Cc3ccccc3)C2)CC1)N1CCc2ccccc21 (racemic) [Compound 107]	0.96	2.50	2.50	2.50	2.50	10.0
	Cc1ncc(CN2CCN(C3CCN(C(=O)c4cc(C(F)(F)F)cc(C(F)(F)F)c4)C(Cc4ccccc4)C3)CC2)o1 (racemic) [Compound 119]	2.81	2.50	2.50	2.50	10.0	>40
2.08	Cc1cccc(C)c1NC(=O)CN1CCN([C@H]2CCN(C(=O)c3cc(C(F)(F)F)cc(C(F)(F)F)c3)[C@@H](Cc3cc(F)cc(F)c3)C2)CC1 (racemic) [Compound 132, (±)-cis-4-[1-[3,5-bis (trifluoromethyl)benzoyl]-2-[(3,5-difluorophenyl)methyl]-4-piperidinyl]-N-(2,6-dimethylphenyl)-1-piperazineacetamide]		10.0	10.0	10.0	10.0	10.0
	O=C(c1cc(C(F)(F)F)cc(C(F)(F)F)c1)N1CCC(N2CCN(CC=Cc3ccccc3)CC2)CC1Cc1ccccc1 (centres unmarked) [Compound 28]	13.3					
	O=C(c1cc(C(F)(F)F)cc(C(F)(F)F)c1)N1CCC(N2CCN(CC=Cc3ccccc3)CC2)CC1Cc1ccccc1 (centres unmarked) [Compound 29]	0.45					
	O=C(c1cc(C(F)(F)F)cc(C(F)(F)F)c1)N1CCC(N2CCN(C(c3ccc(F)cc3)c3ccc(F)cc3)CC2)CC1Cc1ccccc1 (centres unmarked) [Compound 35]	17					
	O=C(c1cc(C(F)(F)F)cc(C(F)(F)F)c1)N1CCC(N2CCN(C(c3ccc(F)cc3)c3ccc(F)cc3)CC2)CC1Cc1ccccc1 (centres unmarked) [Compound 36]	2.31					
	O=C(CN1CCN(C2CCN(C(=O)c3cc(C(F)(F)F)cc(C(F)(F)F)c3)C(Cc3ccccc3)C2)CC1)Nc1ccccc1 (centres unmarked) [Compound 37]	9.6					
	O=C(c1cc(C(F)(F)F)cc(C(F)(F)F)c1)N1CCC(N2CCN(CCc3ccccc3)CC2)CC1Cc1ccccc1 (centres unmarked) [Compound 44]	8.34					
	COc1ccccc1NC(=O)CN1CCN(C2CCN(C(=O)c3cc(C(F)(F)F)cc(C(F)(F)F)c3)C(Cc3ccccc3)C2)CC1 (centres unmarked) [Compound 51]	1.35					
	O=C(c1cc(C(F)(F)F)cc(C(F)(F)F)c1)N1CCC(N2CCN(C(c3ccccc3)c3ccccc3)CC2)CC1Cc1ccccc1 (centres unmarked) [Compound 55]	2.8					
